# Laboratory results taken from patent publication US6551790B2, “Process for glucuronidation screening” (PanVera LLC, priority 1998, dated 2003).
# Residue numbers refer to the chain shown, from its start. Like-named read-outs stand apart in the source and are kept apart here.
# Experiments:
# UGT2B7 = biological target: T1, UGT2B7 (Homo sapiens, UniProt P16662)
# T1 sequence (P16662 24-529): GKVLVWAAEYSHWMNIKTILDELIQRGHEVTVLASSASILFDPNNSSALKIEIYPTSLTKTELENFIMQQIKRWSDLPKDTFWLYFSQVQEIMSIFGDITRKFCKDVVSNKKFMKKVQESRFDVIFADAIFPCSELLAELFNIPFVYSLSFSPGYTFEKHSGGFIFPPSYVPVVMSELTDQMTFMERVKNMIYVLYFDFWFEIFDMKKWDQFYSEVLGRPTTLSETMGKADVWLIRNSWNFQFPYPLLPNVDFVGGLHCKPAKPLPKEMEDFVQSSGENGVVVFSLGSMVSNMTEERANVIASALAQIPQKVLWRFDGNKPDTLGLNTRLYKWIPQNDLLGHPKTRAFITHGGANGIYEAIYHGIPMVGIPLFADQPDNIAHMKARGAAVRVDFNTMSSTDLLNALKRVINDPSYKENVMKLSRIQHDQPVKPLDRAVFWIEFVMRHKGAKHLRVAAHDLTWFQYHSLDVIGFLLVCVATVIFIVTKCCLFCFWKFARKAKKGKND
# Text: Heterologous expression and characterization of full length UGT 2B7.
# Stable UGT2B7 cell lines were established from embryonic human kidney cells (HK293 cells) and microsomal membrane fractions from these cells were used to assess the properties of the recombinant enzyme. […] The specificity of the purified UGT2B7 will be assessed by determining overall catalytic efficiency with each aglycone substrate, as reflected in a ratio of the two fundamental Michaelis kinetic parameters, Vmax/Km. Reaction rates will be determined over a range of substrate concentrations and nonlinear regression will be used to fit the UGT rate data to velocity versus substrate curves (Graph Pad, Prism). Vmax/Km values will be determined and compared with those determined with the enzyme isolated from HK293 cells (Table 1). […] This ratio will be determined for the purified enzyme using HPLC-based methods for separation and quantification of the two glucuronides.
# UGT2B7Y(268) [1] = biological target: T2, UGT2B7Y(268) (Homo sapiens, UniProt P16662); conditions: human
# T2 sequence (P16662 24-529): T1 sequence (P16662 24-529)
# UGT2B7H(268) [2] = biological target: T3, UGT2B7H(268) (Homo sapiens, UniProt P16662, Y268H); conditions: human
# T3 sequence (P16662 24-529 Y268H): T1 sequence (P16662 24-529) with Y245H
# UGT2B7Y(268) [3] = biological target: T2, UGT2B7Y(268); experiment: in vitro
# UGT2B7H(268) [4] = biological target: T3, UGT2B7H(268); experiment: in vitro
# UGT2B7Y(268) [5] = biological target: T2, UGT2B7Y(268); experiment: Kinetics of glucuronidation, membrane preparations of HK293 cells stably expressing UGT2B7Y(268)
# UGT2B7H(268) [6] = biological target: T3, UGT2B7H(268); experiment: Kinetics of glucuronidation, membrane preparations of HK293 cells stably expressing UGT2B7H(268)
smiles,measurement,setting,value
COc1ccc2c3c1O[C@H]1[C@@H](O)C=C[C@H]4[C@@H](C2)N(C)CC[C@@]341 [codeine],Glucuronidation activity towards opioids,UGT2B7,demonstrated
same,conversion to the 6-O-glucuronide by UGT2B7,UGT2B7,efficiently converted
same,"efficiency ratio of glucuronidation, 3-OH to 6-OH","UGT2B7; human, pH 7.7",7 to 1
same,Km,UGT2B7Y(268) [1],360 µM
same,Km,UGT2B7H(268) [2],550 µM
same,Km,UGT2B7Y(268) [3],230 µM
same,Km,UGT2B7H(268) [4],791 µM
same,Vmax,UGT2B7Y(268) [5],"190, 40 pmol/min/mg protein"
same,Vmax,UGT2B7H(268) [6],"97, 110 pmol/min/mg protein"
